One may read the IC50 as the midpoint of a concentration-inhibition curve.

The target of series [1] is T1, recombinant human ALDH-1 (Homo sapiens, UniProt P00352).
T1 sequence (P00352 1-501): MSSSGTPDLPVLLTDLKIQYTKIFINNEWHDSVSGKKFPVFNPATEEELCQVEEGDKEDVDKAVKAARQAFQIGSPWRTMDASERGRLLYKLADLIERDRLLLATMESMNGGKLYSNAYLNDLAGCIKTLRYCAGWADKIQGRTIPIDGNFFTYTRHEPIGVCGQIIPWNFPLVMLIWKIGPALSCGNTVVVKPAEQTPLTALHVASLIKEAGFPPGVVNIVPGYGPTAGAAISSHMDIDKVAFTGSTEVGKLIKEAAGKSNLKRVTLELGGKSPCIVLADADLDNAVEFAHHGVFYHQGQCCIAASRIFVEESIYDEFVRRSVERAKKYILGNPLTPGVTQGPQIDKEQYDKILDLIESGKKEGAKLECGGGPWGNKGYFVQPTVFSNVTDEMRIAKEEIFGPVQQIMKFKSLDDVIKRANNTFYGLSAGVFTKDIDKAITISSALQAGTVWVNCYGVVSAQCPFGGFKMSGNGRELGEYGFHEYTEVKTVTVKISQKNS
Kind of series: ALDH-1 inhibition assay. It is filed as biochemical. To be noted: 60 min pre-incubation; 10 μM = highest concentration tested; read-out: Enzymatic Assays IC50 ALDH1.
Protocol: B. ALDH-1 inhibition assay: The ALDH-1 reaction mixture used in the assay contained 100 μM formaldehyde, 2.5 mM NAD+, 20 mM NaCl, 10 mM MgCl2, 1 mM dithiothreitol (DTT; reducing agent), and 50 nM recombinant human ALDH-1 in 50 mM Hepes buffer, pH 7.5 in a final volume of 10 μL using 384-well Corning 3820 plates. After 60 min of pre-incubation of the test ALDH-2 inhibitor compound with ALDH-1, the reaction was started by adding NAD+ and formaldehyde and the assay reaction mixture was allowed to proceed for 60 minutes. Activity of the ALDH-1 enzyme was determined by monitoring NADH formation using Perkin-Elmer Envision Reader with excitation and emission wavelengths set at 340 and 460 nm, respectively.

Series [2] has as its target T2, MAO-A (Homo sapiens, UniProt P21397).
T2 sequence (P21397 1-527): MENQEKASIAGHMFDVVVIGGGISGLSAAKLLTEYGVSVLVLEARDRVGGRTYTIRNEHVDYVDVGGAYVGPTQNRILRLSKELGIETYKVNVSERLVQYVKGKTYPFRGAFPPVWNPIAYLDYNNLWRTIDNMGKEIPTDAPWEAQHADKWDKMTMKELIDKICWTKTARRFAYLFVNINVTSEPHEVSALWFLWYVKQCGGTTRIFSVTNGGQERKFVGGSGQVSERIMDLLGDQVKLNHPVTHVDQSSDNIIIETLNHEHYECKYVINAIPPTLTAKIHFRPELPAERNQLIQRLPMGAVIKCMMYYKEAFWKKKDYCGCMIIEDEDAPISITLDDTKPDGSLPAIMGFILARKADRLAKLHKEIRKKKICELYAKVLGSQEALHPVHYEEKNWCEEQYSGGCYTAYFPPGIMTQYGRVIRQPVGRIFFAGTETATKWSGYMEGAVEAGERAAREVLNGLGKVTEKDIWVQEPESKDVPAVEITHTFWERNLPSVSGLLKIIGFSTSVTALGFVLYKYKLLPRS
Kind of series: MAO-A inhibition assay (luminogenic substrate). It is filed as biochemical. To be noted: 20 min pre-incubation; 10 μM = highest concentration tested; read-out: Enzymatic Assays IC50 MAO-A. The protocol: (§1) D. MAO-A and MAO-B inhibition assays: MAO assays included luminogenic MAO substrate, reaction buffers, Luciferin Detection, and a reconstitution buffer with esterase. The MAO reaction mixture used in the assay included microsome contained MAO-A (2 μg) or MAO-B (10 μg), 160 μM substrate for MAO-A or 16 μM substrate for MAO-B, MAO-A buffer (100 mM Hepes buffer, pH 7.5, 5% glycerol) or MAO-B buffer (100 mM Hepes, pH 7.5, 5% glycerol, 10% dimethyl sulfoxide) in a final volume of 30 μL. After 20 minutes of pre-incubation of the MAO-A or MAO-B enzyme with the test ALDH-2 inhibitor compound, the reaction was initiated by adding enzyme substrate and the […] reaction was allowed to proceed for 60 minutes. Reconstituted Luciferin Detection Reagent (30 μL) was then added is added to simultaneously stop the MAO reaction and convert the methyl ester derivative to luciferin and produce light. The amount of light produced is directly proportional to the activity of MAO. The mixtures were further incubated for 20 minutes and activity of the enzyme was determined using Perkin-Elmer Envision Reader.

The target in series [3] is T3, MAO-B (Homo sapiens, UniProt P27338).
T3 sequence (P27338 1-520): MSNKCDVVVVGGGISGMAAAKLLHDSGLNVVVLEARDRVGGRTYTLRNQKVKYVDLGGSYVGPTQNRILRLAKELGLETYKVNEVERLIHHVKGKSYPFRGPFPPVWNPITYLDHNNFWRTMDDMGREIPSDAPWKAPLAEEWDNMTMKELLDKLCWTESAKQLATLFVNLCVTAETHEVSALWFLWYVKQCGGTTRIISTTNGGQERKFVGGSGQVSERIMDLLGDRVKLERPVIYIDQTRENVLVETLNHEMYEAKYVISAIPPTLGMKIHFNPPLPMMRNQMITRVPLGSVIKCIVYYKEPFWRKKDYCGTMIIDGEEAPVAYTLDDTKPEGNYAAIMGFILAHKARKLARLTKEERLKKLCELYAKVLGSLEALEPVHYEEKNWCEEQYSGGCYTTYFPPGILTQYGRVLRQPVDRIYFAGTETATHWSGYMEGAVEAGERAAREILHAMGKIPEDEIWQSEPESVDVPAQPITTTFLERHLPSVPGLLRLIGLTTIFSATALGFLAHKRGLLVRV
Briefly: MAO-B inhibition assay (luminogenic substrate). It is filed as biochemical. The following applies: 20 min pre-incubation; 10 μM = highest concentration tested; read-out: Enzymatic Assays IC50 MAO-B. On the procedure:
as §1

The test system of series [4] is HepaRG spheroids. Briefly: HepaRG 3D spheroid assay (hepatotoxic liability). It is filed as cell-based. To be noted: minimum effective concentration crossing vehicle control threshold of cell health marker; dosed days 1, 4, 7, 10, 13; 100 μM = highest concentration tested. The source says:
See e.g., Walker et al., “The evolution of strategies to minimise the risk of human drug-induced liver injury (DILI) in drug discovery and development,” (2020) Archives of Toxicology, Vol. 94: 2559-2585, which is hereby incorporated by reference herein in its entirety. […] In applying the HepaRG spheroid assay analysis to determining the hepatoxic liability of ALDH-2 inhibitor compounds, consideration is made of the binding to plasma protein and the limitations to CNS penetration due to the blood-brain barrier.
E. HepaRG® 3D spheroid assay: The HepaRG 3D spheroid assay is described in Walker et al., “The evolution of strategies to minimise the risk of human drug-induced liver injury (DILI) in drug discovery and development,” (2020) Archives of Toxicology, Vol. 94: 2559-2585. Briefly, HepaRG® cells were seeded into ultra-low adhesion 96-well black walled clear bottomed spheroid microplates. […] At the end of the incubation period, the spheroids were loaded with the relevant dye/antibody for each cell health marker (spheroid count, spheroid size, DNA structure, mitochondrial mass, mitochondrial membrane potential, oxidative stress, glutathione content, and cellular ATP). The plates were then scanned using an automated fluorescent cellular imager, ArrayScan® (Thermo Scientific Cellomics).

The target in series [5] is T4, recombinant human ALDH-2 (Homo sapiens, UniProt P05091).
T4 sequence (P05091 18-517): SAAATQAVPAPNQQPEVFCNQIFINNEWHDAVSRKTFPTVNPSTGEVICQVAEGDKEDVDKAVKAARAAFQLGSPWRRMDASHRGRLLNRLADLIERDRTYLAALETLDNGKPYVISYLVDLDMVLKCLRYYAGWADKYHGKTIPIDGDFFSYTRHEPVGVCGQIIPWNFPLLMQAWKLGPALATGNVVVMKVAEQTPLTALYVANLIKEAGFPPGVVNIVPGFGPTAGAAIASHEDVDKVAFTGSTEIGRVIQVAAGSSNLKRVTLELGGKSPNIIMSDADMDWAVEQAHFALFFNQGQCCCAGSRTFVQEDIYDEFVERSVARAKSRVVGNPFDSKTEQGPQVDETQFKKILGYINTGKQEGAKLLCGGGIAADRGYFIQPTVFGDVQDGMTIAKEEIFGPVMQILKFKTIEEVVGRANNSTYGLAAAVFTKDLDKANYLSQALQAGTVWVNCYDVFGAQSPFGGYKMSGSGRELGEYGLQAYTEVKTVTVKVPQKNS
Briefly: ALDH-2 inhibition assay. To be noted: 60 min pre-incubation; 10 μM = highest concentration tested; read-out: Enzymatic Assays IC50 ALDH2. It is filed as biochemical.
Protocol: A. ALDH-2 inhibition assay: The ALDH-2 reaction mixture used in the assay contained 125 μM formaldehyde, 75 μM NAD+, 20 mM NaCl, 10 mM MgCl2, and 20 nM recombinant human ALDH-2 in 50 mM Hepes buffer, pH 7.5 in a final volume of 10 μL using 384-well Corning 3820 plates. After 60 min of pre-incubation of the test ALDH-2 inhibitor compound with ALDH-2, the reaction was started by adding NAD+ and formaldehyde and the assay reaction mixture was allowed to proceed for 60 minutes. Activity of the ALDH-2 enzyme was determined by monitoring NADH formation using Perkin-Elmer Envision Reader with excitation and emission wavelengths set at 340 and 460 nm, respectively.

Regarding `Cc1cccc(Cl)c1C(=O)NCc1ccc(N2CCNC(=O)C2)nc1` [(1a), 2-chloro-6-methyl-N-((6-(3-oxopiperazin-1-yl)pyridin-3-yl)methyl)benzamide], the half-inhibitory concentration (IC50) in series [1] was above 10 µM; in series [2], above 10 µM; in series [3] it was above 10 µM; in series [5], 0.012 µM. In addition, the “HepaRG 3D Spheroid MEC” value in series [4] was found to be 54.1 µM.

Turning to `O=C1CN(c2ccc(CNC(=O)c3ccccc3Cl)cn2)CCN1` [(1b), 2-Chloro-N-((6-(3-oxopiperazin-1-yl)pyridin-3-yl)methyl)benzamide], the IC50 in series [1] was above 10 µM; in series [2], above 10 µM; in series [3], above 10 µM; in series [5], 0.058 µM. Besides, the “HepaRG 3D Spheroid MEC” value in series [4] is “No Effect”.

In the case of `Cc1nccc(Cl)c1C(=O)NCc1ccc(N2CCNC(=O)C2)nc1` [(1c), 4-Chloro-2-methyl-N-((6-(3-oxopiperazin-1-yl)pyridin-3-yl)methyl)nicotinamide], the IC50 in series [1] was above 10 µM; in series [2] it was above 10 µM; in series [3] it was above 10 µM; in series [5] it was 0.035 µM. Also, the “HepaRG 3D Spheroid MEC” value in series [4] is “No Effect”.

`O=C1CN(c2ccc(CNC(=O)c3c(Cl)cccc3Cl)cn2)CCN1` [(1d), 2,6-Dichloro-N-((6-(3-oxopiperazin-1-yl)pyridin-3-yl)methyl)benzamide]: the IC50 was above 10 µM in series [1], above 10 µM in series [2], above 10 µM in series [3] and 0.008 µM in series [5]. Moreover, the “HepaRG 3D Spheroid MEC” value in series [4] worked out at 29.4 µM.

For the origin of these results see patent publication US12351569B2, “ALDH-2 inhibitor compounds and methods of use” (Amygdala Neurosciences, Inc., priority 2022, dated 2025).
